Source: the supplement of paper PMC11061612

Assays:
Assay in all cases: Bliss excess, mean over the matrix (fraction); higher = more synergy
[1] = system: SHP-77 (Small Cell Lung Carcinoma)
Procedure, shortened: (§1)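 Cell lines grown in DMEM/F12 or RPMI with 10% FBS were plated in 1536-well plates and held 24 hours at 37°C, 5% CO2 before 72 hours of exposure to two-drug dose matrices, with DMSO typically at 0.2%. CellTiter-Glo 2.0 luminescence gave viability, which was converted to inhibition. Vehicle wells were set to 0 and blank wells to 1. Combination Emax is the second-highest inhibition in the matrix, and Bliss excess is the observed combination effect minus the expected EA + EB − EA·EB, where EA and EB are the single-agent effects.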

[2] = system: CAL-62 (Thyroid Gland Carcinoma)
Procedure, shortened: as §1

[3] = system: NCI-H446 (Small Cell Lung Carcinoma)
Procedure, shortened: as §1

[4] = system: PSN1 (Pancreatic Carcinoma)
Procedure, shortened: as §1

LN-229 (Glioblastoma) = system: LN-229 (Glioblastoma)
Procedure, shortened: as §1

[5] = system: FADU (Head and Neck Carcinoma)
Procedure, shortened: as §1

[6] = system: LK-2 (Squamous Cell Lung Carcinoma)
Procedure, shortened: as §1

[7] = system: TE-8 (Esophageal Squamous Cell Carcinoma)
Procedure, shortened: as §1

[8] = system: RERF-LC-Sq1 (Squamous Cell Lung Carcinoma)
Procedure, shortened: as §1

[9] = system: KE-37 (T-Lymphoblastic Leukemia)
Procedure, shortened: as §1

[10] = system: PANC-03-27 (Pancreatic Carcinoma)
Procedure, shortened: as §1

[11] = system: RKN (Other Solid Carcinomas)
Procedure, shortened: as §1

[12] = system: COLO-680N (Esophageal Squamous Cell Carcinoma)
Procedure, shortened: as §1

[13] = system: GP5d (Colorectal Carcinoma)
Procedure, shortened: as §1

[14] = system: HEC-1 (Endometrial Carcinoma)
Procedure, shortened: as §1

[15] = system: MFE-280 (Endometrial Carcinoma)
Procedure, shortened: as §1

[16] = system: REH (B-Lymphoblastic Leukemia)
Procedure, shortened: as §1

[17] = system: LB996-RCC (Kidney Carcinoma)
Procedure, shortened: as §1

[18] = system: MKN45 (Gastric Carcinoma)
Procedure, shortened: as §1

[19] = system: OAW-42 (Ovarian Carcinoma)
Procedure, shortened: as §1

Row | SMILES | Bliss excess [1] | Bliss excess [2] | Bliss excess [3] | Bliss excess [4] | Bliss excess (LN-229 (Glioblastoma)) | Bliss excess [5] | Bliss excess [6] | Bliss excess [7] | Bliss excess [8] | Bliss excess [9] | Bliss excess [10] | Bliss excess [11] | Bliss excess [12] | Bliss excess [13] | Bliss excess [14] | Bliss excess [15] | Bliss excess [16] | Bliss excess [17] | Bliss excess [18] | Bliss excess [19]
1 | Cc1c2c(nn1C)CSCc1cc(n(C)n1)CSc1cc(c3ccccc3c1)OCCCc1c(C(=O)O)n(C)c3c-2c(Cl)ccc13 [AZD5991] + Cn1cnc2c(F)c(Nc3ccc(Br)cc3Cl)c(C(=O)NOCCO)cc21 [Selumetinib] (first compound max 1 µM, 7x7, partner max 3 µM) | 0.0623 | -0.0174 | 0.0241 | 0.0011 | 0.0485 | 0.0722 | -0.0063 | -0.0435 | 0.0048 | 0.0278 | -0.0414 | -0.0147 | -0.0091 | 0.0017 | -0.0318 | 0.0226 | -0.0302 | 0.0053 | -0.0643 | 0.0218
2 | CS(=O)(=O)CCNCc1ccc(-c2ccc3ncnc(Nc4ccc(OCc5cccc(F)c5)c(Cl)c4)c3c2)o1 [Lapatinib] + C[C@@H](Oc1cc(-c2cnn(C3CCNCC3)c2)cnc1N)c1c(Cl)ccc(F)c1Cl [Crizotinib] (first compound max 10 µM, 7x7, partner max 10 µM) | -0.0004 | -0.0436 | -0.0344 | -0.0443 | -0.0396 | -0.0302 | 0.0067 | -0.0294 | -0.039 | 0.0236 | -0.0111 | -0.05 | -0.017 | -0.0036 | -0.021 | -0.0226 | -0.0347 | -0.0196 | -0.0063 | -0.0033
3 | CC1(C)CCC(CN2CCN(c3ccc(C(=O)NS(=O)(=O)c4ccc(NCC5CCOCC5)c([N+](=O)[O-])c4)c(Oc4cnc5[nH]ccc5c4)c3)CC2)=C(c2ccc(Cl)cc2)C1 [Venetoclax] + COc1cc(Nc2ncc3c(n2)-c2ccc(Cl)cc2C(c2c(F)cccc2OC)=NC3)ccc1C(=O)O [Alisertib] (first compound max 1 µM, 7x7, partner max 10 µM) | 0.241 | -0.0092 | -0.0775 | -0.0219 | -0.041 | 0.0252 | -0.035 | 0.0171 | -0.0289 | -0.0545 | -0.0236 | -0.0516 | -0.0427 | 0.0453 | -0.0385 | -0.0266 | 0.22 | -0.0096 | -0.0645 | -0.079
4 | CC1(C)CCC(CN2CCN(c3ccc(C(=O)NS(=O)(=O)c4ccc(NCC5CCOCC5)c([N+](=O)[O-])c4)c(Oc4cnc5[nH]ccc5c4)c3)CC2)=C(c2ccc(Cl)cc2)C1 [Venetoclax] + C[C@@H]1COCCN1C2=NC(=NC(=C2)C3(CC3)[S@](=N)(=O)C)C4=C5C=CNC5=NC=C4 [AZD6738] (first compound max 1 µM, 7x7, partner max 10 µM) | -0.007 | 0.0023 | -0.0536 | -0.0848 | -0.0601 | 0.0467 | -0.0205 | -0.0603 | -0.0476 | 0.0293 | -0.0556 | -0.058 | -0.0004 | -0.0657 | -0.0267 | -0.0486 | 0.0493 | -0.066 | -0.0526 | -0.016
5 | CC1(C)CCC(CN2CCN(c3ccc(C(=O)NS(=O)(=O)c4ccc(NCC5CCOCC5)c([N+](=O)[O-])c4)c(Oc4cnc5[nH]ccc5c4)c3)CC2)=C(c2ccc(Cl)cc2)C1 [Venetoclax] + CN(C)CCCOc1ccc(-c2ccc3ncc4c(c3c2)n(C2CCOCC2)c(=O)n4C)cn1 [AZD0156] (first compound max 1 µM, 7x7, partner max 1 µM) | 0.0254 | 0.0063 | 0.0143 | -0.0421 | -0.007 | 0.0088 | 0.02 | -0.0574 | -0.0401 | -0.0036 | -0.0876 | -0.0862 | -0.014 | -0.0274 | 0.0064 | 0.0338 | 0.0037 | -0.0398 | -0.095 | -0.0402
6 | Cn1cnc2c(F)c(Nc3ccc(Br)cc3Cl)c(C(=O)NOCCO)cc21 [Selumetinib] + CCN(CCO)CCCOc1ccc2c(Nc3cc(CC(=O)Nc4cccc(F)c4)[nH]n3)ncnc2c1 [AZD2811] (first compound max 10 µM, 7x7, partner max 1 µM) | 0.0447 | 0.0427 | -0.0069 | -0.0501 | -0.0303 | -0.026 | -0.0937 | -0.0471 | -0.0041 | -0.0047 | 0.0374 | -0.0232 | -0.0324 | -0.0153 | -0.0402 | -0.0767 | -0.0464 | -0.0359 | 0.0107 | -0.011
7 | CN(CCO)CC[C@H](CSc1ccccc1)Nc1ccc(S(=O)(=O)NC(=O)c2ccc(N3CCC([C@@H](O)c4ccccc4-c4ccc(Cl)cc4)CC3)cc2)cc1S(=O)(=O)C(F)(F)F [AZD4320] + C[C@@H]1COCCN1C2=NC(=NC(=C2)C3(CC3)[S@](=N)(=O)C)C4=C5C=CNC5=NC=C4 [AZD6738] (first compound max 1 µM, 7x7, partner max 10 µM) | -0.0032 | 0.0112 | 0.0178 | -0.0798 | 0.0358 | -0.0165 | -0.0267 | -0.0357 | -0.0082 | -0.0133 | -0.0392 | -0.03 | -0.0302 | -0.0515 | 0.0028 | 0.0099 | 0.0532 | -0.0179 | -0.0471 | -0.0315
8 | NC1(C(=O)N[C@@H](CCO)c2ccc(Cl)cc2)CCN(c2ncnc3[nH]ccc23)CC1 [Capivasertib] + CC(C)n1c(=O)n(C)c2cnc3cc(F)c(-c4ccc(OCCCN5CCCCC5)nc4)cc3c21 [AZD1390] (first compound max 10 µM, 7x7, partner max 0.3 µM) | -0.0178 | -0.0389 | -0.0866 | -0.0422 | -0.0755 | -0.0562 | -0.0165 | -0.0571 | -0.0655 | -0.0392 | 0.0162 | -0.0477 | -0.0403 | -0.0843 | -0.0453 | -0.0763 | -0.135 | -0.0871 | -0.0646 | -0.0171
9 | NC1(C(=O)N[C@@H](CCO)c2ccc(Cl)cc2)CCN(c2ncnc3[nH]ccc23)CC1 [Capivasertib] + Cn1cnc2c(F)c(Nc3ccc(Br)cc3Cl)c(C(=O)NOCCO)cc21 [Selumetinib] (first compound max 10 µM, 7x7, partner max 10 µM) | -0.0045 | 0.0695 | 0.0534 | -0.0255 | 0.0437 | -0.0297 | 0.0313 | -0.0324 | 0.0005 | 0.0803 | 0.0728 | 0.0373 | 0.028 | -0.0427 | 0.0234 | 0.0212 | -0.005 | 0.0146 | -0.0478 | 0.0028
10 | COc1nnc2ccc(N3CCC(c4ccc(OCCN5CCN(C)C(=O)[C@H]5C)cc4)CC3)nn12 [AZD5153] + CC1(C)CCC(CN2CCN(c3ccc(C(=O)NS(=O)(=O)c4ccc(NCC5CCOCC5)c([N+](=O)[O-])c4)c(Oc4cnc5[nH]ccc5c4)c3)CC2)=C(c2ccc(Cl)cc2)C1 [Venetoclax] (first compound max 1 µM, 7x7, partner max 1 µM) | 0.0049 | -0.0461 | 0.0507 | -0.0649 | -0.0496 | -0.0492 | -0.0015 | -0.0838 | -0.0246 | -0.0133 | -0.0422 | -0.0369 | -0.0372 | -0.0741 | -0.0443 | -0.0138 | -0.136 | -0.0178 | -0.0389 | -0.0201
11 | Cc1nc(Nc2ncc(C(=O)Nc3c(C)cccc3Cl)s2)cc(N2CCN(CCO)CC2)n1 [Dasatinib] + CC(=O)Nc1cccc(-n2c(=O)n(C3CC3)c(=O)c3c(Nc4ccc(I)cc4F)n(C)c(=O)c(C)c32)c1 [Trametinib] (first compound max 2 µM, 7x7, partner max 1 µM) | -0.0238 | 0.163 | 0.112 | 0.0121 | -0.0025 | -0.0972 | 0.0113 | -0.0436 | -0.179 | -0.0125 | 0.0178 | 0.0011 | 0.0389 | -0.0254 | 0.0095 | -0.0004 | -0.0421 | -0.0527 | -0.0069 | 0.0199
12 | CN(CCO)CC[C@H](CSc1ccccc1)Nc1ccc(S(=O)(=O)NC(=O)c2ccc(N3CCC([C@@H](O)c4ccccc4-c4ccc(Cl)cc4)CC3)cc2)cc1S(=O)(=O)C(F)(F)F [AZD4320] + C[C@@H](Nc1cc(F)cc(F)c1)c1cc(C(=O)N(C)C)cc2c(=O)cc(N3CCOCC3)oc12 [AZD8186] (first compound max 1 µM, 7x7, partner max 3 µM) | 0.0216 | 0.046 | 0.0281 | -0.0651 | 0.0166 | 0.041 | -0.0056 | 0.008 | -0.0169 | 0.0866 | 0.0439 | -0.0338 | 0.0088 | -0.0378 | 0.0133 | 0.0097 | 0.0353 | 0.0394 | -0.0724 | 0.0688
13 | CC(=O)Nc1cccc(-n2c(=O)n(C3CC3)c(=O)c3c(Nc4ccc(I)cc4F)n(C)c(=O)c(C)c32)c1 [Trametinib] + Cc1nc(-c2cn3c(n2)-c2ccc(-c4cnn(C(C)(C)C(N)=O)c4)cc2OCC3)n(C(C)C)n1 [Taselisib] (first compound max 1 µM, 7x7, partner max 10 µM) | 0.107 | 0.15 | 0.0967 | 0.0665 | 0.19 | 0.213 | 0.0821 | 0.129 | 0.0906 | 0.0968 | 0.156 | 0.124 | 0.063 | -0.0186 | 0.11 | 0.021 | 0.0939 | 0.0519 | -0.0862 | 0.109
14 | Cn1cnc2c(F)c(Nc3ccc(Br)cc3Cl)c(C(=O)NOCCO)cc21 [Selumetinib] + C[C@@H]1COCCN1C2=NC(=NC(=C2)C3(CC3)[S@](=N)(=O)C)C4=C5C=CNC5=NC=C4 [AZD6738] (first compound max 10 µM, 7x7, partner max 10 µM) | 0.0421 | 0.0142 | 0.0036 | -0.0193 | 0.0078 | 0.0102 | 0.0613 | -0.0289 | 0.0516 | 0.0087 | -0.0117 | 0.0584 | -0.0258 | 0.0209 | -0.0317 | -0.0651 | -0.0612 | -0.0871 | -0.0731 | -0.0257
